Results from the NIST ThermoML archive (doi:10.1021/je900646u).
Numbers after ± are expanded uncertainties.

Settings: Crystal; DTA

Normal melting temperature: 281.00 ± 0.5 °C
SMILES: Nc1ccc(O)c(C(=O)O)c1 [5-aminosalicylic acid]
